According to US8575091B1, “Amylin analogues and pharmaceutical compositions thereof” (Novo Nordisk A/S, priority 2012, dated 2013):
pEC50, pIC50: −log10 of the molar value. Numbered stars: 1 amine (or outer) side, 2 acyl side, 3 side chain; on linkers, the order of the positions; unused ones are H or OH. Bridge positions count the residues as written; N and C are the ends. Peptide text beside a SMILES is read from it. * marks the point of attachment. C20 diacid = O=C(O)CCCCCCCCCCCCCCCCCCC(=O)*; γGlu = O=C(O)[C@H](CCC(=O)[*:2])N[*:1]

Experiments:
[1] = target: T1, human calcitonin receptor (Homo sapiens, UniProt P30988); test: Assay (II)a functional assay, human calcitonin receptor (CRE luciferase, BHK cells);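 further: luminescence from a CRE-driven luciferase reporter, read by single photon counting after cells were exposed to test samples for 3 h at 37 °C under 5% CO2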; format: cell-based; details: read-out: hCTR funct. EC50
T1 construct: expressed in transfected cells
T1 sequence (P30988 25-474): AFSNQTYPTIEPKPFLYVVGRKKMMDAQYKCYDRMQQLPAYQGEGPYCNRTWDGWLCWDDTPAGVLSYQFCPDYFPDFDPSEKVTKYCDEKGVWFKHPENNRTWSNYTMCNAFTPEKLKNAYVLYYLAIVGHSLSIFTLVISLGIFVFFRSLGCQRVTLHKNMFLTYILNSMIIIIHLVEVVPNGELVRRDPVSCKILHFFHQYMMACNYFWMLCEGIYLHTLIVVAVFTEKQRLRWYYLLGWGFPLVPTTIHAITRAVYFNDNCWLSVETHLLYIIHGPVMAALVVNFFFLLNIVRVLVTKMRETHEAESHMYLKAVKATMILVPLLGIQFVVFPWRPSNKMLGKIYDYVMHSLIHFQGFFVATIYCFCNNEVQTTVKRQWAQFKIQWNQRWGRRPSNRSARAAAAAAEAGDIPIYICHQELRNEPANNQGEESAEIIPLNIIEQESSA

human amylin receptor = target: T2, human amylin receptor (Homo sapiens, UniProt O60896+P30988); test: Assay (V) binding to the human amylin receptor (SPA, 125I-rat amylin); details: for pIC50: human amylin receptor membranes, SPA, read-out: hAmylin-R bind IC50
T2 construct: expressed in transfected cells
T2 sequence (P30988 25-474): T1 sequence (P30988 25-474)
T2 sequence (O60896 24-148 partner): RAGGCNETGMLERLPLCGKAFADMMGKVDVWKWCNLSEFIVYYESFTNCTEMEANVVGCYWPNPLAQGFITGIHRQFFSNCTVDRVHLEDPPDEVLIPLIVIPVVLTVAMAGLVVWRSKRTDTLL
Outline: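 SPA competition binding on membranes from Amylin 3(a)/CRE-luc cells, 35 ng/μL membranes with 0.05 mg/well beads. Buffer 50 mM Hepes pH 7.4, 1 mM CaCl2, 5 mM MgCl2, 0.1% OA, 0.02% Tween20. IC50 from one-site competition fit as affinity measure.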

[2] = target: T3, human amylin receptor (amylin 3(a) receptor: human calcitonin receptor + RAMP-3) (Homo sapiens, UniProt O60896+P30988); test: Assay (II)a functional assay, human amylin receptor (CRE luciferase, BHK cells); format: cell-based; details: for pEC50: functional assay, human amylin receptor, read-out: hAmylin-R funct. EC50
T3 construct: expressed in transfected cells
T3 sequence (P30988 25-474): T1 sequence (P30988 25-474)
T3 sequence (O60896 24-148 partner): T2 sequence (O60896 24-148 partner)

[3] = target: T1, human calcitonin receptor; test: Assay (VII) binding to the human calcitonin receptor (SPA, 125I-Calcitonin); details: read-out: hCTR bind IC50;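 further: cell membranes coupled to SPA beads, competitive displacement read by scintillation counting, IC50 derived from a one-site competition fit as a measure of receptor affinity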
[4] = Table 6, human functional selectivity (hCTR EC50 / hAmylin-R EC50)

| pEC50 [1] | pIC50 (human amylin receptor) | Ratio hCT/hAmylin funct. [2, 4] | pEC50 [2] | pIC50 [3] | Ratio hCT/hAmylin binding (human amylin receptor; Table 7b, human calcitonin receptor binding IC50 divided by human amylin receptor binding IC50) | Ratio hCT/hAmylin binding (human amylin receptor; Table 7c, human calcitonin receptor binding IC50 divided by human amylin receptor binding IC50) | Ratio hCT/hAmylin binding (human amylin receptor; human binding ratio, included for comparison) | Ratio hCT/hAmylin funct. ([2]; Table 6a, human functional selectivity (hCTR EC50 / hAmylin-R EC50), at least 5) | Ratio hCT/hAmylin funct. ([2]; Table 6j, hCTR funct. EC50 / hAmylin-R funct. EC50) | Ratio hCT/hAmylin funct. ([2]; Table 6k, hCTR funct. EC50 / hAmylin-R funct. EC50) | Compound |
| --- | --- | --- | --- | --- | --- | --- | --- | --- | --- | --- | --- |
| 8.99 | 9.10 | 3.8 | 9.57 | 8.01 |  |  |  |  |  |  | CC[C@H](C)[C@H](NC(=O)[C@H](C)NC(=O)CNC(=O)[C@H](Cc1ccccc1)NC(=O)[C@H](CC(N)=O)NC(=O)[C@@H]1CCCN1C(=O)[C@H](CO)NC(=O)[C@H](CO)NC(=O)[C@H](Cc1c[nH]cn1)NC(=O)[C@H](CCCNC(=N)N)NC(=O)[C@H](CC(C)C)NC(=O)[C@H](Cc1ccccc1)NC(=O)[C@H](CCC(=O)O)NC(=O)[C@H](C)NC(=O)[C@H](CC(C)C)NC(=O)[C@H](CCCNC(=N)N)NC(=O)[C@H](CCC(N)=O)NC(=O)[C@@H](NC(=O)[C@H](C)NC(=O)[C@@H]1CSSC[C@H](NC(=O)[C@H](CCCCN)NC(=O)CC[C@H](NC(=O)CCCCCCCCCCCCCCCCCCC(=O)O)C(=O)O)C(=O)N[C@@H](CC(N)=O)C(=O)N[C@@H]([C@@H](C)O)C(=O)N[C@@H](C)C(=O)N[C@@H]([C@@H](C)O)C(=O)N1)[C@@H](C)O)C(=O)N1CCC[C@H]1C(=O)N[C@@H](CO)C(=O)N[C@@H](CO)C(=O)N[C@H](C(=O)N[C@@H](CC(N)=O)C(=O)N[C@H](C(=O)NCC(=O)N[C@@H](CO)C(=O)N[C@@H](CCC(=O)O)C(=O)N[C@H](C(=O)N[C@@H](Cc1ccc(O)cc1)C(N)=O)[C@@H](C)O)C(C)C)[C@@H](C)O [Example 22] ({C20 diacid-γGlu}-KCNTATCATQRLAEFLRHSSPNFGAIPSSTNVGSETY-NH2; disulfide 2-7) |
| 8.52 | 9.06 | 8.9 | 9.47 | 7.66 | 25.0 | 25.0 | 25.0 | 8.9 | 8.9 | 8.9 | CC[C@H](C)[C@H](NC(=O)[C@H](C)NC(=O)CNC(=O)[C@H](Cc1ccccc1)NC(=O)[C@H](CC(N)=O)NC(=O)[C@@H]1CCCN1C(=O)[C@H](CO)NC(=O)[C@H](CO)NC(=O)[C@H](Cc1c[nH]cn1)NC(=O)[C@H](CCCNC(=N)N)NC(=O)[C@H](CC(C)C)NC(=O)[C@H](Cc1ccccc1)NC(=O)[C@H](CC(N)=O)NC(=O)[C@H](C)NC(=O)[C@H](CC(C)C)NC(=O)[C@H](CCCNC(=N)N)NC(=O)[C@H](CCC(N)=O)NC(=O)[C@@H](NC(=O)[C@H](C)NC(=O)[C@@H]1CSSC[C@H](NC(=O)[C@H](CCCCN)NC(=O)CC[C@H](NC(=O)CCCCCCCCCCCCCCCCCCC(=O)O)C(=O)O)C(=O)N[C@@H](CC(N)=O)C(=O)N[C@@H]([C@@H](C)O)C(=O)N[C@@H](C)C(=O)N[C@@H]([C@@H](C)O)C(=O)N1)[C@@H](C)O)C(=O)N1CCC[C@H]1C(=O)N[C@@H](CO)C(=O)N[C@@H](CO)C(=O)N[C@H](C(=O)N[C@@H](CC(N)=O)C(=O)N[C@H](C(=O)NCC(=O)N[C@@H](CO)C(=O)N[C@@H](CCC(=O)O)C(=O)N[C@H](C(=O)N[C@@H](Cc1ccc(O)cc1)C(N)=O)[C@@H](C)O)C(C)C)[C@@H](C)O [Example 23] |
